Measured values reported in patent publication US4476120A, “Thiolic derivatives of erythromycin having therapeutic activity, and pharmaceutical compositions containing them” (Sigma Tau Indistrie Farmaceutiche Riunites, p.A, priority 1982, dated 1984).
≈ marks a conversion by molar mass, not a printed value.

Columns and labels:
Staph. albus SS 04 = format: cell-based; conditions: Brain Heart Infusion, estolate and RV11-RV15 previously hydrolized, unit assumed
Staph. aureus SS 07 [1] = format: cell-based; conditions: Brain Heart Infusion, estolate and RV11-RV15 previously hydrolized, unit assumed
Staph. aureus SS 08 = format: cell-based; conditions: Brain Heart Infusion, estolate and RV11-RV15 previously hydrolized, unit assumed
Staph. aureus SS 09 = format: cell-based; conditions: Brain Heart Infusion, estolate and RV11-RV15 previously hydrolized, unit assumed
Staph. aureus SS 10 = format: cell-based; conditions: Brain Heart Infusion, estolate and RV11-RV15 previously hydrolized, unit assumed
[2] = system: Strept. haemolyticus SS 17; format: cell-based; conditions: Brain Heart Infusion, estolate and RV11-RV15 previously hydrolized, unit assumed
[3] = system: Strept. haemolyticus SS 18; format: cell-based; conditions: Brain Heart Infusion, estolate and RV11-RV15 previously hydrolized, unit assumed
Strept. faecalis SS 19 = format: cell-based; conditions: Brain Heart Infusion, estolate and RV11-RV15 previously hydrolized, unit assumed
S. lutea ATCC 9341 = format: cell-based; conditions: Brain Heart Infusion, estolate and RV11-RV15 previously hydrolized, unit assumed
B. subtilis ATCC 6633 = format: cell-based; conditions: Brain Heart Infusion, estolate and RV11-RV15 previously hydrolized, unit assumed
B. subtilis SS 127 = format: cell-based; conditions: Brain Heart Infusion, estolate and RV11-RV15 previously hydrolized, unit assumed
B. cereus ATCC 11778 = format: cell-based; conditions: Brain Heart Infusion, estolate and RV11-RV15 previously hydrolized, unit assumed
Br. melitensis SS 19 = format: cell-based; conditions: unit assumed
Br. abortus SS 7 = format: cell-based; conditions: Brain Heart Infusion, estolate and RV11-RV15 previously hydrolized, unit assumed
Citrobacter SS 05 = format: cell-based; conditions: Brain Heart Infusion, estolate and RV11-RV15 previously hydrolized, unit assumed
S. infantis SS 08 = format: cell-based; conditions: Brain Heart Infusion, estolate and RV11-RV15 previously hydrolized, unit assumed
S. heidelberg SS 18 = format: cell-based; conditions: Brain Heart Infusion, estolate and RV11-RV15 previously hydrolized, unit assumed
E. cloacae SS 07 = format: cell-based; conditions: Brain Heart Infusion, estolate and RV11-RV15 previously hydrolized, unit assumed
E. aerogenes SS 011 = format: cell-based; conditions: Brain Heart Infusion, estolate and RV11-RV15 previously hydrolized, unit assumed
Ps. aeruginosa SS 10 = format: cell-based; conditions: Brain Heart Infusion, estolate and RV11-RV15 previously hydrolized, unit assumed
E. coli SS 04 = format: cell-based; conditions: Brain Heart Infusion, estolate and RV11-RV15 previously hydrolized, unit assumed
E. coli SS 05 = format: cell-based; conditions: Brain Heart Infusion, estolate and RV11-RV15 previously hydrolized, unit assumed
E. coli SS 06 = format: cell-based; conditions: Brain Heart Infusion, estolate and RV11-RV15 previously hydrolized, unit assumed
E. coli SS 07 = format: cell-based; conditions: Brain Heart Infusion, estolate and RV11-RV15 previously hydrolized, unit assumed
Pr. mirabilis SS 09 = format: cell-based; conditions: Brain Heart Infusion, estolate and RV11-RV15 previously hydrolized, unit assumed
Pr. vulgaris SS 10 = format: cell-based; conditions: Brain Heart Infusion, estolate and RV11-RV15 previously hydrolized, unit assumed
Kl. aerogenes SS 71 = format: cell-based; conditions: Brain Heart Infusion, estolate and RV11-RV15 previously hydrolized, unit assumed
H. tubercolosis SS 03 = format: cell-based; conditions: Brain Heart Infusion, estolate and RV11-RV15 previously hydrolized, unit assumed
Excerpt: (§1) In the following table I the MIC/ml values are indicated corresponding to the lowest concentration capable of inducing a complete inhibition of the bacterial development.

Kl. pneumoniae SS 04 = format: cell-based; conditions: Brain Heart Infusion, estolate and RV11-RV15 previously hydrolized, unit assumed
Excerpt: as §1

Sr. marcescens SS 03 = format: cell-based; conditions: Brain Heart Infusion, estolate and RV11-RV15 previously hydrolized, unit assumed
C. diphtheriae SS 19 = format: cell-based; conditions: Brain Heart Infusion, estolate and RV11-RV15 previously hydrolized, unit assumed
D. pneumoniae SS 23 [4] = format: cell-based; conditions: Brain Heart Infusion, estolate and RV11-RV15 previously hydrolized, unit assumed
N. gonorreae SS 27 = format: cell-based; conditions: Brain Heart Infusion, estolate and RV11-RV15 previously hydrolized, unit assumed
N. meningitidis SS 04 = format: cell-based; conditions: Brain Heart Infusion, estolate and RV11-RV15 previously hydrolized, unit assumed
H. influentiae SS 02 = format: cell-based; conditions: Brain Heart Infusion, estolate and RV11-RV15 previously hydrolized, unit assumed
C. albicans SS 04 = format: cell-based; conditions: Brain Heart Infusion, estolate and RV11-RV15 previously hydrolized, unit assumed
Cl. tetani SS 17 = format: cell-based; conditions: Brain Heart Infusion, estolate and RV11-RV15 previously hydrolized, unit assumed
Acute toxicity = format: in vivo; conditions: mouse, in vivo, po
Procedure: The acute toxicity was assessed in Swiss white mice by oral and intravenous route. The LD50 values have been calculated by the methods of Probits, starting from the mortality recorded 10 days after the treatment.

Staph. aureus SS 07 [5] = experiment: Experimental infection induced by Staph. aureus SS 07; format: in vivo, Swiss white mice; conditions: os; Staph. aureus SS 07; mg/kg of erythromycin; survival after 7 days; 10080 min
Method in brief: (§2)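 Swiss mice of 20 g infected parenterally with lethal amounts of Staph. aureus SS 07 or D. pneumoniae SS 23. Antibiotics were given at infection and again 6 and 24 h later. ED50 was derived from survival at 7 days.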

D. pneumoniae SS 23 [6] = experiment: Experimental infection induced by D. pneumoniae SS 23; format: in vivo, Swiss white mice; conditions: os; D. pneumoniae SS 23; mg/kg of erythromycin; survival after 7 days; 10080 min
Method in brief: as §2

[7] = Mucolytic activity: obstruction of the bronchial tract after SO2 inhalation; format: in vivo, Sprague Dawley male rats; conditions: oral, 500 mg/kg; SO2, 15 days
[8] = Histological examination of bronchi after SO2 inhalation; format: in vivo, Sprague Dawley male rats; conditions: oral, 500 mg/kg; for histological appearance of non obstructed bronchi: free non obstructed

Compound: CCC(=O)O[C@H]1[C@H](O[C@@H]2[C@@H](C)[C@H](O[C@H]3C[C@@](C)(OC)[C@@H](O)[C@H](C)O3)[C@@H](C)C(=O)O[C@H](CC)[C@@](C)(O)[C@H](O)[C@@H](C)C(=O)[C@H](C)C[C@@]2(C)O)O[C@H](C)C[C@@H]1N(C)C [RV11, erythromycin-monopropionate-alpha-mercaptosuccinate]
- MIC (Staph. albus SS 04): 0.05 µg/mL (≈ 0.0633 µM)
- MIC (Staph. aureus SS 07 [1]): 0.05 µg/mL (≈ 0.0633 µM)
- MIC (Staph. aureus SS 08): 0.025 µg/mL (≈ 0.0316 µM)
- MIC (Staph. aureus SS 09): 0.1 µg/mL (≈ 0.127 µM)
- MIC (Staph. aureus SS 10): 0.025 µg/mL (≈ 0.0316 µM)
- MIC [2]: 1.5 µg/mL (≈ 1.9 µM)
- MIC [3]: 1.5 µg/mL (≈ 1.9 µM)
- MIC (Strept. faecalis SS 19): 0.05 µg/mL (≈ 0.0633 µM)
- MIC (S. lutea ATCC 9341): 0.01 µg/mL (≈ 0.0127 µM)
- MIC (B. subtilis ATCC 6633): 0.025 µg/mL (≈ 0.0316 µM)
- MIC (B. subtilis SS 127): 0.05 µg/mL (≈ 0.0633 µM)
- MIC (B. cereus ATCC 11778): 0.8 µg/mL (≈ 1.01 µM)
- MIC (Br. melitensis SS 19): 3 µg/mL (≈ 3.8 µM)
- MIC (Br. abortus SS 7): 6 µg/mL (≈ 7.59 µM)
- MIC (Citrobacter SS 05): > 200 µg/mL
- MIC (S. infantis SS 08): 100 µg/mL (≈ 127 µM)
- MIC (S. heidelberg SS 18): 100 µg/mL (≈ 127 µM)
- MIC (E. cloacae SS 07): > 200 µg/mL
- MIC (E. aerogenes SS 011): 100 µg/mL (≈ 127 µM)
- MIC (Ps. aeruginosa SS 10): 100 µg/mL (≈ 127 µM)
- MIC (E. coli SS 04): 50 µg/mL (≈ 63.3 µM)
- MIC (E. coli SS 05): 100 µg/mL (≈ 127 µM)
- MIC (E. coli SS 06): 50 µg/mL (≈ 63.3 µM)
- MIC (E. coli SS 07): 50 µg/mL (≈ 63.3 µM)
- MIC (Pr. mirabilis SS 09): > 200 µg/mL
- MIC (Pr. vulgaris SS 10): > 200 µg/mL
- MIC (Kl. aerogenes SS 71): 100 µg/mL (≈ 127 µM)
- MIC (H. tubercolosis SS 03): 50 µg/mL (≈ 63.3 µM)
- MIC (Kl. pneumoniae SS 04): 200 µg/mL (≈ 253 µM)
- MIC (Sr. marcescens SS 03): 200 µg/mL (≈ 253 µM)
- MIC (C. diphtheriae SS 19): 0.01 µg/mL (≈ 0.0127 µM)
- MIC (D. pneumoniae SS 23 [4]): 0.025 µg/mL (≈ 0.0316 µM)
- MIC (N. gonorreae SS 27): 0.4 µg/mL (≈ 0.506 µM)
- MIC (N. meningitidis SS 04): 1.5 µg/mL (≈ 1.9 µM)
- MIC (H. influentiae SS 02): 0.8 µg/mL (≈ 1.01 µM)
- MIC (C. albicans SS 04): 200 µg/mL (≈ 253 µM)
- MIC (Cl. tetani SS 17): 0.2 µg/mL (≈ 0.253 µM)
- LD50 at 240 h (Acute toxicity; os, mortality 10 days after treatment, mice, read-out: LD50 (reliability limits)): 3000 mg/kg
- ED50 (reliability limits) (Staph. aureus SS 07 [5]): 2.14 (2.40-1.91) mg/kg
- ED50 (reliability limits) (D. pneumoniae SS 23 [6]): 100.41 (122.52-82.30) mg/kg
- Partial obstruction (% incidence) [7]: 13.33%
- Total obstruction, compact plug (% incidence) [7]: 20%
- Total obstruction, nodular mass (% incidence) [7]: 6.66%
- Total obstruction, pimply mass (% incidence) [7]: 6.66%
- histological appearance of non obstructed bronchi [8]: presence of bronchi having almost normal appearance
- histological appearance of obstructed bronchial tract [8]: fully like that of the control animals

Compound: CCC(=O)O[C@H]1[C@H](O[C@@H]2[C@@H](C)[C@H](O[C@H]3C[C@@](C)(OC)[C@@H](O)[C@H](C)O3)[C@@H](C)C(=O)O[C@H](CC)[C@@](C)(O)[C@H](O)[C@@H](C)C(=O)[C@H](C)C[C@@]2(C)O)O[C@H](C)C[C@@H]1N(C)C [RV13, erythromycin-monopropionate-thiazolidin-carboxylate]
- MIC (Staph. albus SS 04): 0.025 µg/mL (≈ 0.0316 µM)
- MIC (Staph. aureus SS 07 [1]): 0.025 µg/mL (≈ 0.0316 µM)
- MIC (Staph. aureus SS 08): 0.05 µg/mL (≈ 0.0633 µM)
- MIC (Staph. aureus SS 09): 0.1 µg/mL (≈ 0.127 µM)
- MIC (Staph. aureus SS 10): 0.1 µg/mL (≈ 0.127 µM)
- MIC [2]: 1.5 µg/mL (≈ 1.9 µM)
- MIC [3]: 1.5 µg/mL (≈ 1.9 µM)
- MIC (Strept. faecalis SS 19): 0.05 µg/mL (≈ 0.0633 µM)
- MIC (S. lutea ATCC 9341): 0.025 µg/mL (≈ 0.0316 µM)
- MIC (B. subtilis ATCC 6633): 0.025 µg/mL (≈ 0.0316 µM)
- MIC (B. subtilis SS 127): 0.025 µg/mL (≈ 0.0316 µM)
- MIC (B. cereus ATCC 11778): 0.8 µg/mL (≈ 1.01 µM)
- MIC (Br. melitensis SS 19): 3 µg/mL (≈ 3.8 µM)
- MIC (Br. abortus SS 7): 6 µg/mL (≈ 7.59 µM)
- MIC (Citrobacter SS 05): > 200 µg/mL
- MIC (S. infantis SS 08): 100 µg/mL (≈ 127 µM)
- MIC (S. heidelberg SS 18): 100 µg/mL (≈ 127 µM)
- MIC (E. cloacae SS 07): > 200 µg/mL
- MIC (E. aerogenes SS 011): 50 µg/mL (≈ 63.3 µM)
- MIC (Ps. aeruginosa SS 10): 100 µg/mL (≈ 127 µM)
- MIC (E. coli SS 04): 100 µg/mL (≈ 127 µM)
- MIC (E. coli SS 05): 50 µg/mL (≈ 63.3 µM)
- MIC (E. coli SS 06): 50 µg/mL (≈ 63.3 µM)
- MIC (E. coli SS 07): 50 µg/mL (≈ 63.3 µM)
- MIC (Pr. mirabilis SS 09): > 200 µg/mL
- MIC (Pr. vulgaris SS 10): > 200 µg/mL
- MIC (Kl. aerogenes SS 71): 100 µg/mL (≈ 127 µM)
- MIC (H. tubercolosis SS 03): 50 µg/mL (≈ 63.3 µM)
- MIC (Kl. pneumoniae SS 04): 100 µg/mL (≈ 127 µM)
- MIC (Sr. marcescens SS 03): 100 µg/mL (≈ 127 µM)
- MIC (C. diphtheriae SS 19): 0.01 µg/mL (≈ 0.0127 µM)
- MIC (D. pneumoniae SS 23 [4]): 0.025 µg/mL (≈ 0.0316 µM)
- MIC (N. gonorreae SS 27): 0.8 µg/mL (≈ 1.01 µM)
- MIC (N. meningitidis SS 04): 0.8 µg/mL (≈ 1.01 µM)
- MIC (H. influentiae SS 02): 1.5 µg/mL (≈ 1.9 µM)
- MIC (C. albicans SS 04): 100 µg/mL (≈ 127 µM)
- MIC (Cl. tetani SS 17): 0.2 µg/mL (≈ 0.253 µM)
- LD50 (reliability limits) (Acute toxicity; 14400 min): 3000 mg·kg
- ED50 (reliability limits) (Staph. aureus SS 07 [5]): 2.20 (2.44-1.99) mg/kg
- ED50 (reliability limits) (D. pneumoniae SS 23 [6]): 113.88 (144.73-89.60) mg/kg
- Partial obstruction (% incidence) [7]: 20%
- Total obstruction, compact plug (% incidence) [7]: 20%
- Total obstruction, nodular mass (% incidence) [7]: 6.66%
- Total obstruction, pimply mass (% incidence) [7]: 13.33%
- histological appearance of non obstructed bronchi [8]: presence of bronchi having almost normal appearance
- histological appearance of obstructed bronchial tract [8]: fully like that of the control animals
